ChEMBL document CHEMBL1641370, “Novel 6,7,8,9-tetrahydro-5H-1,4,7,10a-tetraaza-cyclohepta[f]indene analogues as potent and selective 5-HT(2C) agonists for the treatment of metabolic disorders” (Bioorg Med Chem Lett, 2011)

What was measured:
[1] = target: T1, 5-hydroxytryptamine receptor 2A (Homo sapiens, UniProt P28223); assay: Agonist activity at human recombinant 5HT2A receptor expressed in CHOK1 cells assessed as induction of intracellular calcium release by FLIPR assay; format: functional, cell-based, CHO-K1
T1 sequence (P28223 whole entry): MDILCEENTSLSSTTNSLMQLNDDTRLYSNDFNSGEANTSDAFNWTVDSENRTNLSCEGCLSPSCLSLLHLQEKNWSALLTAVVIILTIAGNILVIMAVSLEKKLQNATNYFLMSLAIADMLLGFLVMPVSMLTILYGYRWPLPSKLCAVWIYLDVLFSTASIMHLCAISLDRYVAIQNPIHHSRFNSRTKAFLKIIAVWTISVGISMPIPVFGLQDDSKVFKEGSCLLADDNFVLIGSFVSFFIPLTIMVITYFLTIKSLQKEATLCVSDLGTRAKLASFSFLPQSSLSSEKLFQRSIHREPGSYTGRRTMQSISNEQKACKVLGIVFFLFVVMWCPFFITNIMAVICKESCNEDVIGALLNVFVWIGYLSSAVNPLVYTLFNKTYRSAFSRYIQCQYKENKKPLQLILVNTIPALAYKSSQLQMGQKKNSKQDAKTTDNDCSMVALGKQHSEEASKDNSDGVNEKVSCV

[2] = target: T2, 5-hydroxytryptamine receptor 2C (Homo sapiens, UniProt P28335); assay: Agonist activity at human recombinant 5HT2C receptor expressed in CHOK1 cells assessed as induction of intracellular calcium release by FLIPR assay; format: functional, cell-based, CHO-K1
T2 sequence (P28335 whole entry): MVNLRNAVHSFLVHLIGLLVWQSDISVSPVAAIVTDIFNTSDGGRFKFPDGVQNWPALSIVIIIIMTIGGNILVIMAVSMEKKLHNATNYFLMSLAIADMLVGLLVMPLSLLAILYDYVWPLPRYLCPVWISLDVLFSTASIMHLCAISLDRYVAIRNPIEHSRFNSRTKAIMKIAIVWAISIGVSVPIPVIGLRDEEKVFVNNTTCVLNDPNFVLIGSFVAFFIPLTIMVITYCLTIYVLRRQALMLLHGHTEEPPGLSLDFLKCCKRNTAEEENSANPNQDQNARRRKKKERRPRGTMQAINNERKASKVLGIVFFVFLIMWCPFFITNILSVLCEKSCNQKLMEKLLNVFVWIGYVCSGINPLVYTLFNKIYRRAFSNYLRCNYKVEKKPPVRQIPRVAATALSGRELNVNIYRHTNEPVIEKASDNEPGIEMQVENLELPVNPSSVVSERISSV

[3] = target: T1, 5-hydroxytryptamine receptor 2A; assay: Agonist activity at human recombinant 5HT2A receptor expressed in CHOK1 cells assessed as induction of intracellular calcium release by FLIPR assay relative to 5-HT; format: functional, cell-based; settings: CHO-K1
hERG (KCNH2) = hERG (KCNH2) (Homo sapiens, UniProt Q12809); assay: Inhibition of human ERG expressed in CHO cells at 10 uM by whole cell patch-clamp technique; format: cell-based; settings: CHO cells expressing human ERG
Chain of hERG (KCNH2) (Q12809 whole entry): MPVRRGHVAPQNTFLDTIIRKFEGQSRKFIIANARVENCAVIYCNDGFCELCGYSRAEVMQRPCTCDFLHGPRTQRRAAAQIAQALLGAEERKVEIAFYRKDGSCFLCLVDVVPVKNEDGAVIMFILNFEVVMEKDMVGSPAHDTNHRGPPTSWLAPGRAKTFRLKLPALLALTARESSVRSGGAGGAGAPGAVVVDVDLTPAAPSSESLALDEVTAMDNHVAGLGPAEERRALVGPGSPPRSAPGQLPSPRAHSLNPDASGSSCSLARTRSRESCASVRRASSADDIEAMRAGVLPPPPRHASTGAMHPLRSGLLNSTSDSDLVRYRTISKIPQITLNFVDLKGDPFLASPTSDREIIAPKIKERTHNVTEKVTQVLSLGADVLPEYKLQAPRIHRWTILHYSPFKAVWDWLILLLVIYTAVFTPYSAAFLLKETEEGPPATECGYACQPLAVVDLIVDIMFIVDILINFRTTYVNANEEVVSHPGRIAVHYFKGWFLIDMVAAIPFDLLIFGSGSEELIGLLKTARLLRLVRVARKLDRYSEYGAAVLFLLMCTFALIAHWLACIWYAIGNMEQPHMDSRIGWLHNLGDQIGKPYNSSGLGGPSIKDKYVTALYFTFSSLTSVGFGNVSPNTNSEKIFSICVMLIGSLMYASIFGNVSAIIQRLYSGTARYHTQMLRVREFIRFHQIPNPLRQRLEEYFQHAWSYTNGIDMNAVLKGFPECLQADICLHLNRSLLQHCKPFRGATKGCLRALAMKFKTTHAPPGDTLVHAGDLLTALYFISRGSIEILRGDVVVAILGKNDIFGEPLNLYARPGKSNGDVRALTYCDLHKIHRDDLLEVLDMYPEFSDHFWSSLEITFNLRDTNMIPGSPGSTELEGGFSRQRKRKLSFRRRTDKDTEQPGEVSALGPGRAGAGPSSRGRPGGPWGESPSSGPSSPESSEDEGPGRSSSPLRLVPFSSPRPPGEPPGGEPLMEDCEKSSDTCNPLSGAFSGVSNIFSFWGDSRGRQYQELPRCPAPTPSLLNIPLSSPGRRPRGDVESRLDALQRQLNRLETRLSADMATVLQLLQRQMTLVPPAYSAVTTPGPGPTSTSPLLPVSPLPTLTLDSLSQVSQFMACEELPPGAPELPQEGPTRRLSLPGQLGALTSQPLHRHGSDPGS

[4] = target: T3, 5-hydroxytryptamine receptor 2B (Homo sapiens, UniProt P41595); assay: Agonist activity at human recombinant 5HT2B receptor expressed in CHOK1 cells assessed as induction of intracellular calcium release by FLIPR assay relative to 5-HT; format: functional, cell-based; settings: CHO-K1
T3 sequence (P41595 whole entry): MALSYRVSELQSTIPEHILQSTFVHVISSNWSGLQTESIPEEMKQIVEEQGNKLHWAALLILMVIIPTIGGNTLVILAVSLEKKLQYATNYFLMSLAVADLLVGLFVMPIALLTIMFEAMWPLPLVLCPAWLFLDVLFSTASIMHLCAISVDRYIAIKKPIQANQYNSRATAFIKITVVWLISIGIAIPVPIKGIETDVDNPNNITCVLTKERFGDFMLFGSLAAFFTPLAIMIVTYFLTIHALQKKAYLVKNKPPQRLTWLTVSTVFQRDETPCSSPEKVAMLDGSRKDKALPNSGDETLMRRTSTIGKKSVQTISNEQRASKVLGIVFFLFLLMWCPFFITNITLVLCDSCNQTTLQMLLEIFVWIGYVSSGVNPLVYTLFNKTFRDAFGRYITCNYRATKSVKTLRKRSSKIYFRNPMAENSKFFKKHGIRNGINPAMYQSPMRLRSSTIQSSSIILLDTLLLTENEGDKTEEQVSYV

[5] = target: T4, 5-hydroxytryptamine receptor 2C (Homo sapiens) (UniProt P28335); assay: Agonist activity at human recombinant 5HT2C receptor expressed in CHOK1 cells assessed as induction of intracellular calcium release by FLIPR assay relative to 5-HT; format: functional, cell-based; settings: CHO-K1
T4 sequence (whole entry): T2 sequence (P28335 whole entry)

[6] = target: T3, 5-hydroxytryptamine receptor 2B; assay: Agonist activity at human recombinant 5HT2B receptor expressed in CHOK1 cells assessed as induction of intracellular calcium release by FLIPR assay; format: functional, cell-based, CHO-K1
Homo sapiens = species: Homo sapiens; assay: Selectivity ratio of EC50 for human recombinant 5HT2B receptor to EC50 for human recombinant 5HT2C receptor
[7] = target: Serotonin 2 receptors; 5-HT2a & 5-HT2c (Homo sapiens) (UniProt P28223+P28335); assay: Selectivity ratio of EC50 for human recombinant 5HT2A receptor to EC50 for human recombinant 5HT2C receptor
Chain of Serotonin 2 receptors; 5-HT2a & 5-HT2c (Homo sapiens) (P28223 whole entry, looked up, one chain of several): as the sequence (P28223 whole entry) above

Caco-2 = assay: Efflux ratio of permeability from […] of human Caco2 cells; format: ADME, cell-based
[8] = Permeability from apical to basolateral side of human Caco2 cells; format: ADME, cell-based; settings: caco-2, read-out: permeability
[9] = Mean residence time in Wistar rat at 30 mg/kg, po; format: ADME, organism-based; design: dose 30 mg/kg, route oral; settings: in vivo
[10] = Clearance in Wistar rat at 10 mg/kg, iv and 30 mg/kg, po; format: ADME, organism-based; settings: in vivo
[11] = Ratio of drug level in CSF to fraction unbound in plasma of Wistar rat at 30 mg/kg, po at 2 hrs; format: ADME, organism-based; design: dose 30 mg/kg, route oral; settings: in vivo
[12] = Volume of distribution at steady state in Wistar rat at 10 mg/kg, iv and 30 mg/kg, po; format: ADME, organism-based; settings: in vivo, read-out: Vdss
Rattus norvegicus [13] = assay: Antiobesity activity in Wistar rat cafteria diet model assessed as weight loss at 100 mg/kg, po after 3 day relative to control; format: functional
Rattus norvegicus [14] = assay: Antiobesity activity in Wistar rat cafteria diet model assessed as weight loss at 30 mg/kg, po after 3 day relative to control; format: functional
Rattus norvegicus [15] = assay: Dose normalized AUC in Wistar rat at 30 mg/kg, po; format: ADME, organism-based; design: dose 30 mg/kg, route oral; settings: in vivo
[16] = Mean residence time in Wistar rat at 10 mg/kg, iv; format: ADME, organism-based; design: dose 10 mg/kg, route intravenous; settings: in vivo

| SMILES | EC50 [1] [nM] | EC50 [2] [nM] | Emax [3] [%] | Emax [4] [%] | Emax [5] [%] | EC50 [6] [nM] | Ratio EC50 (Homo sapiens) | Ratio EC50 [7] | Ratio (Caco-2) | Papp A→B [8] [×10⁻⁶ cm/s] | MRT [9] [h] | clearance [10] [mL/min/kg] | Ratio [11] | Vd [12] [L/kg] | AUC (Rattus norvegicus [15]) [µM·h] | MRT [16] [h] | inhibition at 10 µM (hERG (KCNH2)) [%] | Activity (Rattus norvegicus [13]) [%] | Activity (Rattus norvegicus [14]) [%] |
| --- | --- | --- | --- | --- | --- | --- | --- | --- | --- | --- | --- | --- | --- | --- | --- | --- | --- | --- | --- |
| Fc1ccccc1OC1CN(c2c3c(nc4ccnn24)CCNCC3)C1 | 648 | 5 | 15 | 69 | 85 | 94 |  |  |  |  |  |  |  |  |  |  |  |  |  |
| c1cncc(OC2CN(c3c4c(nc5ccnn35)CCNCC4)C2)c1 | 63 | 211 | 94 | 73 | 99 | 1480 |  |  |  |  |  |  |  |  |  |  |  |  |  |
| c1cc2nc3c(c(N4CCC4)n2n1)CCNCC3 | 2350 | 5.4 | 51 | 97 | 103 | 94 | < 20 | > 100 |  |  |  |  |  |  |  |  |  |  |  |
| COc1cccc(OC2CN(c3c4c(nc5ccnn35)CCNCC4)C2)c1 | 40 | 65 | 9 | 43 | 88 | 215 |  |  | 2.1 | 10.1 |  |  |  |  |  |  | 97 |  |  |
| c1ccc(OC2CN(c3c4c(nc5ccnn35)CCNCC4)C2)nc1 | 5170 | 37 | 29 | 71 | 93 | 706 |  |  | 2.2 | 10.3 |  |  |  |  |  |  | 78 |  |  |
| COc1ccccc1OC1CN(c2c3c(nc4ccnn24)CCNCC3)C1 | 2680 | 84 | 48 | 89 | 84 | 379 |  |  |  |  |  |  |  |  |  |  | 88 |  |  |
| COc1ccc(OC2CN(c3c4c(nc5ccnn35)CCNCC4)C2)cc1 | 2630 | 95 | 21 | 31 | 76 | 503 |  |  | 1.3 | 10.4 | > 24 | 14 | 0.15 | 11 | 0.72 | 13 | 93 | 3.3 | 3.2 |
| c1cc2nc3c(c(N4CCCCC4)n2n1)CCNCC3 | 585 | 4560 | 10 | 28 | 139 | 2850 |  |  |  |  |  |  |  |  |  |  |  |  |  |
| CC(=O)N(C)c1ccc(OC2CN(c3c4c(nc5ccnn35)CCNCC4)C2)cc1 | 2050 | 188 | 35 | 60 | 96 | 1180 |  |  | 6.9 | 0.62 |  |  |  |  |  |  | 5 |  |  |

Continued by falling EC50 [2], values first:

| EC50 [1] [nM] | EC50 [2] [nM] | Emax [3] [%] | Emax [4] [%] | Emax [5] [%] | EC50 [6] [nM] | Ratio EC50 (Homo sapiens) | Ratio EC50 [7] | Ratio (Caco-2) | Papp A→B [8] [×10⁻⁶ cm/s] | MRT [9] [h] | clearance [10] [mL/min/kg] | Ratio [11] | Vd [12] [L/kg] | AUC (Rattus norvegicus [15]) [µM·h] | MRT [16] [h] | SMILES | inhibition at 10 µM (hERG (KCNH2)) [%] | Activity (Rattus norvegicus [13]) [%] | Activity (Rattus norvegicus [14]) [%] |
| --- | --- | --- | --- | --- | --- | --- | --- | --- | --- | --- | --- | --- | --- | --- | --- | --- | --- | --- | --- |
| 2310 | 764 | 15 | 36 | 110 | 2240 |  |  |  |  |  |  |  |  |  |  | c1cc2nc3c(c(N4CCCC4)n2n1)CCNCC3 |  |  |  |
| 1230 | 574 | 27 | 79 | 102 | 1160 |  |  |  |  |  |  |  |  |  |  | c1cc(OC2CN(c3c4c(nc5ccnn35)CCNCC4)C2)ccn1 |  |  |  |
|  | 362 |  | 69 | 105 | 842 |  |  |  |  |  |  |  |  |  |  | CCN(C)c1c2c(nc3ccnn13)CCNCC2 |  |  |  |
| 138 | 63 | 62 | 97 | 104 | 602 |  |  |  |  |  |  |  |  |  |  | CCNc1c2c(nc3ccnn13)CCNCC2 |  |  |  |
| 32 | 25 | 5 | 23 | 78 | 13 |  |  | 1.6 | 7.9 |  |  |  |  |  |  | Fc1cccc(OC2CN(c3c4c(nc5ccnn35)CCNCC4)C2)c1 | 93 |  |  |
| 3 | 23 | 8 | 43 | 95 | 163 |  |  |  |  |  |  |  |  |  |  | Fc1ccc(OC2CN(c3c4c(nc5ccnn35)CCNCC4)C2)cc1 | 95 |  |  |
| 7770 | 18 | 22 | 58 | 95 | 218 |  |  | 2.3 | 13.3 |  |  |  |  |  |  | c1ccc(OC2CN(c3c4c(nc5ccnn35)CCNCC4)C2)cc1 | 81 |  |  |
| 762 | 8.4 | 86 | 82 | 99 | 73 |  |  |  |  |  |  |  |  |  |  | O=C1Cc2cc(OC3CN(c4c5c(nc6ccnn46)CCNCC5)C3)ccc2N1 | 11 |  |  |
